From patent publication US20240408093A1, “HETEROBIFUNCTIONAL COMPOUNDS AND THEIR USE IN TREATING DISEASE” (HALDA THERAPEUTICS OPCO, INC., priority 2022, published 2024)
Where two headings read alike, the source gives them in different places.

Tests used:
BTK = biological target: T1, BTK (Homo sapiens, UniProt Q06187); assay: Release of effector protein ligand from heterobifunctional compounds, BTK; assay type: biochemical
T1 construct: BTK (amino acids 387-659)
Description: Exemplary heterobifunctional compounds were evaluated for the ability to release an effector protein ligand in the presence of KRAS G12C, BTK, or EGFR T790M L858R target proteins.
Samples for mass spectrometry for KRAS G12C, BTK, and EGFR T790M L858R were prepared as described above for the intact mass spectrometry target engagement experiment, respectively, except rather than flash-freezing, 20 μL of sample was quenched with 50 μL of 100% acetonitrile. As well, a buffer-only control was used to detect latent release of effector protein ligand analyte. Internal standard (IS) solution consisted of 200 ng/mL propranolol and 50 ng/mL diclofenac in methanol:water 1:1 (v/v). A 4-point calibration curve (calibration standard (CS)) consisting of each analyte was made at final concentrations of 3 nM, 30 nM, 300 nM, and 3000 nM. Unknown samples were diluted such that the unknown analyte concentration was in the linear range of the calibration curve.
Samples for all proteins were prepared and analyzed from the following:
Samples were further analyzed with AB Sciex Triple Quad 5500 system coupled with Shimadzu Prominence HPLC.

GSPT1 [1] = biological target: T2, GSPT1 (Homo sapiens, UniProt P15170+Q96SW2); assay: GSPT1 HiBiT degradation assay; assay type: cell-based; details: HEK293 LgBiT GSPT1 HiBiT cells, 6 hours
T2 construct: host or cells: HEK293 LgBiT / GSPT1 HiBiT CRISPR knock-in
Description: Promega developed a HEK293 cell line that constitutively expresses LgBiT protein and GSPT1_HiBiT fusion protein. When both proteins are present, the HiBiT portion of the fusion protein combines with LgBiT protein to form a functional luciferase enzyme. Endurazine, a cell permeable small molecule, is converted by cellular esterases into furimazine, which the luciferase enzyme uses as a substrate to generate luminescence. When GSPT1 is degraded, the HiBit is also degraded. This prevents formation of fully functional luciferase, leading to a loss in luminescence. GSPT1 degradation therefore correlates with a decrease in luminescence and can be measured continuously over time. The concentration of compound at which 50% GSPT1 degradation occurs (DC50) may be calculated using this system.
HEK293 LgBiTGSPT1 HiBiT CRISPR Knock-in cells were cultured in DMEM Media supplemented with 10% Heat-inactivated FBS, 1% Penicillin/Streptomycin, 200 μg/mL hygromycin and stored in a humidified incubator set at 37° C. and 5% CO2. 18-24 hours prior to compound treatment, cells were seeded at 1000 cells/well in a 384-well tissue culture-treated white plates in 25 μL media lacking selection for 18-24 hours. The plates were spun at 300 g for 30 seconds and stored in the incubator overnight. After 24 hours, compounds are titrated in DMSO and added to media supplemented with endurazine substrate. A 25 μL aliquot of 2× compound/endurazine in media is then added to the 384-well microplate with seeded cells. (Endurazine is used at a final concentration of 0.5×). The plate was spun at 300 g for 30 seconds and stored in the incubator. After 6 hours, the plate was read on a Perkin Elmer MultiMode Plate Reader Envision 2105 to measure luminescence signal. Data were plotted in Prism (Graphpad) and the concentration of compound at which 50% GSPT1 degradation occurs (DC50) was calculated.

[2] = system: HEK293 cells (ATCC CRL-1573); assay: Cellular growth inhibition assay, HEK293 cells (Example 16); assay type: cell-based; details: Homo sapiens, 72 hours, CellTiter-Glo 2.0
Description: (§1) Exemplary compounds were tested for ability to inhibit the proliferation of HEK293 cells (ATCC CRL-1573) and HeLa cells (ATCC CCL-2).
(§2) HEK293 and HeLa cells were cultured in DMEM (Gibco 11995), supplemented with 10% Heat-inactivated FBS (Gibco A38400-01) and 1% Penicillin/Streptomycin (Gibco 15140-122) at 37° C. with 5% CO2 in a humidified tissue culture incubator. Cells were seeded at 500 cells/well in 384-well, Poly-D-lysine-treated blackplates (Perkin Elmer 6007710) in 25 μL media lacking selection for 18-24 hours. Plates were spun at 300 g for 30 seconds and stored in the incubator overnight. After 24 hours, a 25 μL aliquot of compound-containing medium was added in each well, at a final top concentration of 10 μM test compound, with 3-fold dilutions, using DMSO alone as a negative control. Plates were then spun at 300×g for 3 minutes again and cultured at 37° C. with 5% CO2. After 72 hours, cell viability was quantified with CellTiter-Glo 2.0 (Promega). After equilibrating cell plates at room temperature for 30 minutes, 25 μL CellTiter-Glo 2.0 reagent was dispensed into each well. Plates were mixed on a shaker for 2 minutes at 500 rpm, followed by a 10-minute incubation at room temperature. Luminescence readings were measured with an EnVision Plate Reader (Perkin Elmer). Data was normalized to DMSO treated cell wells. A four-parameter non-linear regression curve fit was applied to dose-response data in Prism to determine the half maximal growth inhibitory concentration (GI50) of each compound.

KRAS G12C = KRAS G12C (Homo sapiens, UniProt P01116, G12C); assay: KRAS G12C nucleotide exchange assay (SOS1-mediated, HTRF); assay type: biochemical; parameters: GST-tagged KRAS G12C (amino acids 2-169); details: 1 hr pre-incubation
Description: KRAS target engagement (IC50 determination) was performed using a KRAS G12C nucleotide exchange assay. Specifically, compounds were tested against KRAS G12C in 10-point concentration IC50 mode with 3-fold serial dilution at a starting concentration of 10 μM. ARS1620 was used as a control.
Briefly, GST-tagged KRAS G12C (amino acids 2-169) was mixed with anti-GST Tb antibody (1.5× solution) and 10 μL was delivered to reaction wells. Compounds were delivered using an acoustic dispenser (Echo, Labcyte) and pre-incubated with protein for 1 hr at RT. KRAS/anti-GST Tb Ab/compound mixture was incubated for 1 hour at room temperature. A 3× solution of SOS1 (amino acids 564-1049) and GTP-DY-647P1 (GTP*) was prepared in reaction buffer. A 5 μL aliquot of SOS1/GTP* solution was added to reaction wells to initiate the exchange reaction. No-SOS1 reaction or max compound concentration was used as blank. The final concentrations of KRAS G12C, SOS1, and GTP* were 30 nM, 20 nM, and 0.15 μM, respectively. SOS1 mediated exchange of GDP to GTP-DY-647P was measured using HTRF (Ex/Em=(320-75/665-7.5; 615-8.5)) using an Envision Plate Reader (Perkin Elmer). IC50 determination was performed using a Sigmoidal dose response (variable slope) equation.

HeLa cells (ATCC CCL-2) = assay: Cellular growth inhibition assay, HeLa cells (Example 16); assay type: cell-based; details: Homo sapiens, 72 hours, CellTiter-Glo 2.0
Description: as §1, §2

GSPT1 [3] = assay: Payload release assay (DC50 readout), GSPT1 degradation in the presence of recombinant target protein; assay type: cell-based; details: I-series compounds (GSPT1 readout inferred)
Description: Exemplary compounds were tested for ability to cause degradation of CCNK or GSPT1 in the presence of recombinant target protein.
HEK293 LgBiT/GSPT1 HiBiT CRISPR Knock-in cells (Promega) were cultured in DMEM (Gibco 11995), supplemented with 10% Heat-inactivated FBS (Gibco A38400-01) and 1% Penicillin/Streptomycin (Gibco 15140-122) and 200 Vg/ml Hygromycin B (Gibco 10-687-010) at 37° C. with 5% CO2 in a humidified tissue culture incubator. HEK293 LgBiT/CCNK HiBiT cells (in-house, described above) were cultured in DMEM (Gibco 11995), supplemented with 10% Heat-inactivated FBS (Gibco A38400-01) and 1% Penicillin/Streptomycin (Gibco 15140-122) 200 Vg/ml Hygromycin B (Gibco 10-687-010), and 1 Vg/ml Puromycin Dihydrochloride (Thermo A1113803) at 37° C. with 5% CO2 in a humidified tissue culture incubator. Cells were seeded (1000 cells/well for HEK293 LgBiT/GSPT1 HiBiT cells or 3000 cells/well for HEK293 LgBiT/CCNK HiBiT cells) 384-well, tissue culture-treated white plates (Perkin Elmer 6007680) in 10 μL media lacking selection for 18-24 hours. Plates were spun at 300 g for 30 seconds and stored in the incubator overnight. After 24 hours, a 5 μL aliquot of recombinant target protein (final concentration of either 5 μM KRAS amino acids 1-169, C51S, C80L, C118S, G12C or 3 μM EGFR amino acids 696-1022 or 3 μM EGFR amino acids 696-1022, T790M, L858R) was added to wells, followed immediately by a 5 μL aliquot of 4× compound-containing medium supplemented with Endurazine Substrate (Promega N2570) was added in each well, at a final top concentration of 10 μM test compound and 0.5× Endurazine, with 4-fold dilutions, using DMSO alone as a negative control. Plates were then spun at 300×g for 3 minutes again and cultured at 37° C. with 5% CO2. After 6 hours the plate was read on Envision MultiMode Plate Reader 2105 (Perkin Elmer) to measure luminescence signal. Data was normalized to DMSO treated cell wells. A four-parameter non-linear regression curve fit was applied to dose-response data in Prism to determine the half maximal growth inhibitory concentration (GI50) of each compound.

[4] = 0 μM recombinant KRAS G12C, read-out: DC50 at 0 μM KRAS G12C
[5] = 5 μM recombinant KRAS G12C, read-out: DC50 at 5 μM KRAS G12C

KRAS G12C, sequence (P01116 2-169 isoform P01116-2 G12C): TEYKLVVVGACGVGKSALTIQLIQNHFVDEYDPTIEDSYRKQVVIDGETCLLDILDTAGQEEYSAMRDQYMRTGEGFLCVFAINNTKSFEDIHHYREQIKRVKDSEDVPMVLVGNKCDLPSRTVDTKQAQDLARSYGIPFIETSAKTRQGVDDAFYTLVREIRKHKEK
T1 sequence (Q06187 387-659): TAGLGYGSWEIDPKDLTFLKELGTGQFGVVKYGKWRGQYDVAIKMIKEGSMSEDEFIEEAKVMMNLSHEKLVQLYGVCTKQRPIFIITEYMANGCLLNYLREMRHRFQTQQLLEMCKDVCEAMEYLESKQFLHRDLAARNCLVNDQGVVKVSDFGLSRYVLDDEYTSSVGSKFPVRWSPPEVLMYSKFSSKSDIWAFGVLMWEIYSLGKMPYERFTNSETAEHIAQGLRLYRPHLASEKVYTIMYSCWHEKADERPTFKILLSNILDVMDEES
T2 sequence (P15170 whole entry): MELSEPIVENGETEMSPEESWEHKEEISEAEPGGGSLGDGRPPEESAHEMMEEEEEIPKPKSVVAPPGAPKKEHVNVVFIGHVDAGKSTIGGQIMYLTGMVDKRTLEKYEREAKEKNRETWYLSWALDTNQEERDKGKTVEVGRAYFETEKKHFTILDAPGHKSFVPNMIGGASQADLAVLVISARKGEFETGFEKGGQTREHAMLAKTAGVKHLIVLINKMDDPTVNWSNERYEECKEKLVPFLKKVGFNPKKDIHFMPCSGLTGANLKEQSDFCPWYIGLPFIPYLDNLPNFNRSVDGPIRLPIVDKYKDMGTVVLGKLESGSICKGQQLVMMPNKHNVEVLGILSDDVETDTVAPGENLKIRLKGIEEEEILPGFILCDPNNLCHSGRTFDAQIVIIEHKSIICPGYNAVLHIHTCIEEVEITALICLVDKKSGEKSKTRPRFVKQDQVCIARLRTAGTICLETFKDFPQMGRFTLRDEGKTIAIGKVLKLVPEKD
T2 sequence (Q96SW2 whole entry): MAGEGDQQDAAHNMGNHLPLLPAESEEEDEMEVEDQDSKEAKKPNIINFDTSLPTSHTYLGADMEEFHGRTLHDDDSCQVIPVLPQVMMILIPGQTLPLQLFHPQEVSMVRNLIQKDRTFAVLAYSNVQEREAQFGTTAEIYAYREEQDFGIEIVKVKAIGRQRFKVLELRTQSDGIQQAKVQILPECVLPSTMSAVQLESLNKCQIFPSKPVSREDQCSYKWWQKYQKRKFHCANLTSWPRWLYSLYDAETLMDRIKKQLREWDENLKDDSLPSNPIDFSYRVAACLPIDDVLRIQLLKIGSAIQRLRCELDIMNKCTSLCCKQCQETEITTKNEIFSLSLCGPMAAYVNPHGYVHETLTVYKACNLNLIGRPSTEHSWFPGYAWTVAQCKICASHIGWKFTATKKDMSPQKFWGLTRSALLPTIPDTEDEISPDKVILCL
T2 sequence (Q16531 whole entry partner): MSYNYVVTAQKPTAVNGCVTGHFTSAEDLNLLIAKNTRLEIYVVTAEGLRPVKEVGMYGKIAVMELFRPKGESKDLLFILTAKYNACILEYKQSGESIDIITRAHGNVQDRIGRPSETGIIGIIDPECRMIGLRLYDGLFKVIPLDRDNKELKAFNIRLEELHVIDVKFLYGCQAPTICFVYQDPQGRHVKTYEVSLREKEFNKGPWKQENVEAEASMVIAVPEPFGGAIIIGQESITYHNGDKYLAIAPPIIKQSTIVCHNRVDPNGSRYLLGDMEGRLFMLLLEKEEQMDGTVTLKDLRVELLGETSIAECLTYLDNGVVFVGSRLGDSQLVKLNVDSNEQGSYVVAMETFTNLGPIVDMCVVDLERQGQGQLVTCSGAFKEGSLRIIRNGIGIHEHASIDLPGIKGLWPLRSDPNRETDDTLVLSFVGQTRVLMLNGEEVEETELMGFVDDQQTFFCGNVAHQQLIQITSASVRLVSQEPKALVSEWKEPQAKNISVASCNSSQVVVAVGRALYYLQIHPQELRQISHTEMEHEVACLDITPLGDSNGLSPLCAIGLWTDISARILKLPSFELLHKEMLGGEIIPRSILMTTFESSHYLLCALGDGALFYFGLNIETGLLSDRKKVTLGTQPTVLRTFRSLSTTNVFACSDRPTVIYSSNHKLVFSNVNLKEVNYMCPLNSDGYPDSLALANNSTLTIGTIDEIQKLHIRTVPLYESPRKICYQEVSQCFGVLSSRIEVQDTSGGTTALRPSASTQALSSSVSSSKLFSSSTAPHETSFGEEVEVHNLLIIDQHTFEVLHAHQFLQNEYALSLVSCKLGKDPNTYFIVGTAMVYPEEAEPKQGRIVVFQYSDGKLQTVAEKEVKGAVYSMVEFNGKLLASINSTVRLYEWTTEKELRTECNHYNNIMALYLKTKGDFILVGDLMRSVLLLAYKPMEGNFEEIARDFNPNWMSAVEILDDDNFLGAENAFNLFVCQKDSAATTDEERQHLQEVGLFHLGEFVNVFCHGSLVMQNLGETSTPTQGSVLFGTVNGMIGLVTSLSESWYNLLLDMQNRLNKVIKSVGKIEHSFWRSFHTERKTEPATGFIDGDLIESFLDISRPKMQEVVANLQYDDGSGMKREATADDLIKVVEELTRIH

Structure (SMILES)	DC50 (GSPT1 [1])	GI50 [2]	IC50 (KRAS G12C)	DC50 (GSPT1 [3]; [4])	DC50 (GSPT1 [3]; [5])	also measured
C=C(Cn1cc(CNc2cc(N3CCCC[C@H]3CCO)nc3c(CC)cnn23)ccc1=O)C(=O)N(C)CCOc1c(N)ncnc1-c1cc(F)cc(NC(=O)c2ccc(C3CC3)cc2F)c1C [Compound A1-5]	–	–	–	–	–	Concentration of Effector Protein Ligand (BTK; Matrix Buffer + Protein (BTK), Time 0 h, detected A1-3): 51.8 nM; Concentration of Effector Protein Ligand (BTK; Matrix Buffer + Protein (BTK), Time 1 h, detected A1-3): 72.3 nM; Concentration of Effector Protein Ligand (BTK; Matrix Buffer + Protein (BTK), Time 4 h, detected A1-3): 118 nM; Concentration of Effector Protein Ligand (BTK; Matrix Buffer + Protein (BTK), Time 22 h, detected A1-3): 164 nM; Concentration of Effector Protein Ligand (BTK; Matrix Buffer, Time 0 h, detected A1-3): 44.9 nM; Concentration of Effector Protein Ligand (BTK; Matrix Buffer, Time 1 h, detected A1-3): 49 nM; Concentration of Effector Protein Ligand (BTK; Matrix Buffer, Time 4 h, detected A1-3): 52.4 nM; Concentration of Effector Protein Ligand (BTK; Matrix Buffer, Time 22 h, detected A1-3): 80.5 nM
C=C(COc1ccc2nc3c(c(CC)c2c1)Cn1c-3cc2c(c1=O)COC(=O)[C@]2(O)CC)C(=O)N1CCC[C@@H](n2nc(-c3ccc(Oc4ccccc4)cc3)c3c(N)ncnc32)C1 [Compound A1-6]	–	–	–	–	–	Concentration of Effector Protein Ligand (BTK; Matrix Buffer + Protein (BTK), Time 0 h, detected A1-7): 790 nM; Concentration of Effector Protein Ligand (BTK; Matrix Buffer + Protein (BTK), Time 1 h, detected A1-7): 797 nM; Concentration of Effector Protein Ligand (BTK; Matrix Buffer + Protein (BTK), Time 4 h, detected A1-7): 641 nM; Concentration of Effector Protein Ligand (BTK; Matrix Buffer + Protein (BTK), Time 22 h, detected A1-7): 770 nM; Concentration of Effector Protein Ligand (BTK; Matrix Buffer, Time 0 h, detected A1-7): 104 nM; Concentration of Effector Protein Ligand (BTK; Matrix Buffer, Time 1 h, detected A1-7): 92.6 nM; Concentration of Effector Protein Ligand (BTK; Matrix Buffer, Time 4 h, detected A1-7): 66.4 nM; Concentration of Effector Protein Ligand (BTK; Matrix Buffer, Time 22 h, detected A1-7): 86.4 nM
C=C(COc1cc(Cl)cc(NC(=O)NCc2ccc3c(c2)CN(C2CCC(=O)NC2=O)C3=O)c1)C(=O)N1CCN(c2ncnc3c(F)c(-c4c(O)cccc4F)c(Cl)cc23)CC1 (centres unmarked) [Compound I-43]	0.05 to 0.5 µM	< 0.5 µM	> 10 µM	–	–	GI50 (HeLa cells (ATCC CCL-2)): 0.5 to 1.5 µM
C=C(COc1cc(Cl)cc(NC(=O)NCc2ccc3c(c2)CN(C2CCC(=O)NC2=O)C3=O)c1)C(=O)N1CC(n2c(=O)c3cc(-c4cc(O)cc5ccccc45)ccc3n2C)C1 (centres unmarked) [Compound I-57]	0.05 to 0.5 µM	< 0.5 µM	> 10 µM	< 0.25 µM	< 0.25 µM	GI50 (HeLa cells (ATCC CCL-2)): 1.5 to 10 µM
C=C(COc1cc(C(F)(F)C(=O)NCc2ccc3c(c2)CN(C2CCC(=O)NC2=O)C3=O)ccc1Cl)C(=O)N1CCN(c2nc(OC[C@@H]3CCCN3C)nc3c2CCN(c2cccc4cccc(Cl)c24)C3)C[C@@H]1CC#N (some centres unmarked) [Compound I-81]	0.05 to 0.5 µM	1.5 to 10 µM	< 0.1 µM	0.25 to 5 µM	> 10 µM	–
C=C(COc1cc([N+](=O)[O-])c(Cl)cc1NC(=O)NCc1ccc2c(c1)CN(C1CCC(=O)NC1=O)C2=O)C(=O)N1CCN(c2nc(OC[C@@H]3CCCN3C)nc3c2CCN(c2cccc4cccc(Cl)c24)C3)C[C@@H]1CC#N (some centres unmarked) [Compound I-82]	> 2.5 µM	> 10 µM	0.1 to 5 µM	> 10 µM	5 to 10 µM	–
C=C(CN1C(=O)CCC(N2Cc3cc(CNC(=O)Nc4cccc(Cl)c4O)ccc3C2=O)C1=O)C(=O)N1CCN(c2nc(OC[C@@H]3CCCN3C)nc3c2CCN(c2cccc4cccc(Cl)c24)C3)C[C@@H]1CC#N (some centres unmarked) [Compound I-83]	0.5 to 2.5 µM	1.5 to 10 µM	0.1 to 5 µM	0.25 to 5 µM	> 10 µM	–
